Measurements taken from PMC10709440, “High-throughput ligand profile characterization in novel cell lines expressing seven heterologous insect olfactory receptors for the detection of volatile plant biomarkers” (Scientific Reports, 2023).
Read-outs that look alike come from different tables or passages of the source.

Experiments:
Drosophila OR10a = target: T1, Drosophila OR10a (Drosophila melanogaster, UniProt Q9VYZ1); test: Calcium ion fluorescence (GCaMP6) assay, OR10a stable HEK293 cell line; type: cell-based
T1 construct: expressed in transfected cells
T1 sequence (Q9VYZ1 1-406): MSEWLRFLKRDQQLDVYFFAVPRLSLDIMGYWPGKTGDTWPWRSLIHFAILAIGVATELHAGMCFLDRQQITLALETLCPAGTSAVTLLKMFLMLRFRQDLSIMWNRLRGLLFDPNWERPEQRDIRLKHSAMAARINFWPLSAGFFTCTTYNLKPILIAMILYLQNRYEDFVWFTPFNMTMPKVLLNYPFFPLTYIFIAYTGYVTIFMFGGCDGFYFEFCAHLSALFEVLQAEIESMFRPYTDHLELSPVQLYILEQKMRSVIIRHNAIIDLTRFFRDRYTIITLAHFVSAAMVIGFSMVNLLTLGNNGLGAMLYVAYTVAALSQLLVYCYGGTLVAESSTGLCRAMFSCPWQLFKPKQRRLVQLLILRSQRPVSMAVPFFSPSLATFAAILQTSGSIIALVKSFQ
T1 sequence (Q9VNB5 1-486 partner): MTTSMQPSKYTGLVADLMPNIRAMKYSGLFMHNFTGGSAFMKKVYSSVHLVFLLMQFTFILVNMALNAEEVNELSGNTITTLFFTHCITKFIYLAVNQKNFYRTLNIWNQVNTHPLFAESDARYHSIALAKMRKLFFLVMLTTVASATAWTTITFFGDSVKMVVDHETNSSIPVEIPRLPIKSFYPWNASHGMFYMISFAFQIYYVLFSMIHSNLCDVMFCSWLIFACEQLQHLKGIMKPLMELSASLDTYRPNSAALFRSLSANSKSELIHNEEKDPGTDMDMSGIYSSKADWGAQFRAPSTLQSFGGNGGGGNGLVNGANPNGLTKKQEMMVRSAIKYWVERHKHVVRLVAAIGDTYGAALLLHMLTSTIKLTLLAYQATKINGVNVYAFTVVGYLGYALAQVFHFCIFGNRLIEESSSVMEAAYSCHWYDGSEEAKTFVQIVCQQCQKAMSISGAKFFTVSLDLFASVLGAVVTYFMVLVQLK
How it was run: (§1)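 HEK293 lines stably expressing each Drosophila OR with GCaMP6, doxycycline-induced (1 μg/mL) 48 or 72 h. Fluorescence recorded 5 s baseline then 30 s after VOC injection at pH 7.3; ΔF=(FMAX−F0)/F0, normalized to 50 µM VUAA1 response per line, triplicate wells averaged; concentration series 0.01–100 μM.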

Drosophila OR49b = target: T2, Drosophila OR49b (Drosophila melanogaster, UniProt Q9V6H2); test: cell-based; details: for activation at 1 µM / activation at 10 µM / activation at 100 µM: HEK293, read-out: OR49b response (VUAA1-normalized response); for Average response: mean of biological replicates
T2 construct: expressed in transfected cells
T2 sequence (Q9V6H2 1-375): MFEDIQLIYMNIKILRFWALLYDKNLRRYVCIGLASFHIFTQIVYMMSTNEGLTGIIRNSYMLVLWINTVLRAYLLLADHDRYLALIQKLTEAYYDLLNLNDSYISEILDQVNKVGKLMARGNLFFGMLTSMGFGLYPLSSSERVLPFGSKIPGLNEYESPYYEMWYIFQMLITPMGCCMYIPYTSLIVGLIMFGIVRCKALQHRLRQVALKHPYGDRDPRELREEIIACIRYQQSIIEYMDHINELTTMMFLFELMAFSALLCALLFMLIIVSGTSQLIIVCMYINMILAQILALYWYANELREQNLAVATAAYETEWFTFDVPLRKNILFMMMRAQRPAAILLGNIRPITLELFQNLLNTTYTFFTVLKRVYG
T2 sequence (Q9VNB5 1-486 partner): T1 sequence (Q9VNB5 1-486 partner)
How it was run: as §1

[1] = 100 µM, OR10a clone G5, single plate 2019.12.05
[2] = HEK293, 1 μM VOC, 50 μM VUAA1 = 1, responses not exceeding 0.05 considered 0, read-out: OR10a Average response (VUAA1-normalized)
[3] = HEK293, 10 μM VOC, 50 μM VUAA1 = 1, responses not exceeding 0.05 considered 0, read-out: OR10a Average response (VUAA1-normalized)
[4] = HEK293, 100 μM VOC, 50 μM VUAA1 = 1, responses not exceeding 0.05 considered 0, read-out: OR10a Average response (VUAA1-normalized)
[5] = HEK293, read-out: OR10a response (VUAA1-normalized response), VOC concentration 1 μM
[6] = HEK293, read-out: OR10a response (VUAA1-normalized response), VOC concentration 10 μM
[7] = HEK293, read-out: OR10a response (VUAA1-normalized response), VOC concentration 100 μM
[8] = ligand concentration 1 (unit not given), threshold 0.05, below shown as 0
[9] = ligand concentration 10 (unit not given), threshold 0.05, below shown as 0
[10] = ligand concentration 100 (unit not given), threshold 0.05, below shown as 0
[11] = OR49b cell line, odorant cc. 1 µM
[12] = OR49b cell line, odorant cc. 10 µM
[13] = OR49b cell line, odorant cc. 100 µM
[14] = ligand concentration 1 (unit not given), […]
[15] = HEK293, read-out: OR10a Average response (VUAA1-normalized), 1 μM VOC, 50 μM VUAA1 = 1, responses not exceeding 0.05 considered 0
[16] = HEK293, read-out: OR10a Average response (VUAA1-normalized), 10 μM VOC, 50 μM VUAA1 = 1, responses not exceeding 0.05 considered 0
[17] = HEK293, read-out: OR10a Average response (VUAA1-normalized), 100 μM VOC, 50 μM VUAA1 = 1, responses not exceeding 0.05 considered 0

| SMILES | activation at 1 µM (Drosophila OR10a; [2]) [%] | activation at 10 µM (Drosophila OR10a; [3]) [%] | activation at 100 µM (Drosophila OR10a; [4]) [%] | activation at 1 µM (Drosophila OR10a; [5]) [%] | activation at 10 µM (Drosophila OR10a; [6]) [%] | activation at 100 µM (Drosophila OR10a; [7]) [%] | DF norm AVERAGE OR10a (Drosophila OR10a; [8]) | DF norm AVERAGE OR10a (Drosophila OR10a; [9]) | DF norm AVERAGE OR10a (Drosophila OR10a; [10]) | activation at 1 µM (Drosophila OR49b; VOC concentration 1 μM) [%] | activation at 10 µM (Drosophila OR49b; VOC concentration 10 μM) [%] | activation at 100 µM (Drosophila OR49b; VOC concentration 100 μM) [%] | Average response (Drosophila OR49b; [11]) | Average response (Drosophila OR49b; [12]) | Average response (Drosophila OR49b; [13]) | DF norm AVERAGE OR49b (Drosophila OR49b; [8]) | DF norm AVERAGE OR49b (Drosophila OR49b; [9]) | DF norm AVERAGE OR49b (Drosophila OR49b; [10]) | activation at 1 µM (Drosophila OR10a; [15]) [%] | activation at 10 µM (Drosophila OR10a; [16]) [%] | also measured |
| --- | --- | --- | --- | --- | --- | --- | --- | --- | --- | --- | --- | --- | --- | --- | --- | --- | --- | --- | --- | --- | --- |
| CCCCOC(=O)CC [butyl propanoate] | 0 | 0 | 3.44 | 0 | 0 | 0 | 0 | 0 | 0 | 0 | 0 | 0 | 0.00 | 0.00 | 0.00 | 0 | 0 | 0 |  |  | DF norm, all technical replicates (Drosophila OR10a; [1]): 0; DF norm, outlier technical replicates removed (Drosophila OR10a; [1]): 0; DF, outlier technical replicates removed (Drosophila OR10a; [1]): 0; DF, all technical replicates (Drosophila OR10a; 100 µM, OR10a clone G5, single plate 2019.12.05, xc+0.1%DMSO): 0 |
| CCCCCCCCCCCCCC [tetradecane] | 11 | 4.22 | 8 |  |  |  |  |  |  |  |  |  | 0.07 | 0.05 | 0.0348 |  |  |  |  |  | OR10a response (VUAA1-normalized) at 1 μM (Drosophila OR10a; OR10a cell line, VOC concentration 1 μM): 0.11; OR10a response (VUAA1-normalized) at 10 μM (Drosophila OR10a; OR10a cell line, VOC concentration 10 μM): 0.00; OR10a response (VUAA1-normalized) at 100 μM (Drosophila OR10a; OR10a cell line, VOC concentration 100 μM): 0.08; DF norm AVERAGE OR10a (Drosophila OR10a; [14]): 0.1095; DF norm AVERAGE OR10a (Drosophila OR10a; ligand concentration 10 (unit not given), 0.05 threshold, values below shown as 0): 0; DF norm AVERAGE OR10a (Drosophila OR10a; ligand concentration 100 (unit not given), […]): 0.08392; OR49b response (VUAA1-normalized) at 1 μM (Drosophila OR49b; OR49b cell line, VOC concentration 1 μM): 0.07; OR49b response (VUAA1-normalized) at 10 μM (Drosophila OR49b; OR49b cell line, VOC concentration 10 μM): 0.05; OR49b response (VUAA1-normalized) at 100 μM (Drosophila OR49b; OR49b cell line, VOC concentration 100 μM): 0.00; DF norm AVERAGE OR49b (Drosophila OR49b; [14]): 0.06864; DF norm AVERAGE OR49b (Drosophila OR49b; ligand concentration 10 (unit not given), […]): 0.05202; DF norm AVERAGE OR49b (Drosophila OR49b; ligand concentration 100 (unit not given), 0.05 threshold, values below shown as 0): 0 |
| CCCCCC(=O)OCC [ethyl hexanoate] | 6 | 3 | 8.51 | 6 | 0 | 8.51 | 0.06289 | 0 | 0.08508 | 0 | 0 | 0 | 0.00 | 0.00 | 0.00 | 0 | 0 | 0 |  |  |  |
| CCOC(=O)c1ccccc1 [ethyl benzoate] |  |  |  | 29 | 45 | 49 | 0.2908 | 0.4538 | 0.4934 | 6 | 0 | 0 | 0.06 | 0.0464 | 0.0169 | 0.05937 | 0 | 0 | 29 | 45 | activation at 100 µM (Drosophila OR10a; [17]): 49% |
| CC1=CCC2C(C1)C2(C)C (centres unmarked) [3-carene] |  |  |  | 7 | 0 | 0 |  |  |  | 0 | 0 | 0 | 0.00 | 0.00 | 0.00 |  |  |  | 7 | 0 | activation at 100 µM (Drosophila OR10a; [17]): 0%; DF norm AVERAGE OR10a (Drosophila OR10a; concentration 1, normalized fluorescence change, values below 0.05 threshold given as 0): 0.0692; DF norm AVERAGE OR10a (Drosophila OR10a; concentration 10, normalized fluorescence change, values below 0.05 threshold given as 0): 0; DF norm AVERAGE OR10a (Drosophila OR10a; concentration 100, normalized fluorescence change, values below 0.05 threshold given as 0): 0; DF norm AVERAGE OR49b (Drosophila OR49b): 0 |
